Patent US11541030B2, “Methods for the treatment of inflammation associated with infection” (NOXOPHARM LIMITED, priority 2020, dated 2023)

Tests used:
[1] = system: TLR3 (PolyI:C); experiment: PolyI:C-induced IL-6 in hTERT immortalised foreskin fibroblasts; type: cell-based, human; details: 2.5 uM IDX or H151 pre-treatment, 7 h polyI:C (20 ug/ml)
Experimental: (§1) IL-6 levels were measured in the supernatants by ELISA.
(§2) To determine the specificity of IDX on STING signalling, human hTERT immortalised foreskin fibroblasts which have functional TLR4 (LPS) and TLR3 (PolyI:C) responsiveness were tested. […] (FIG. 6).

[2] = system: TLR4 (LPS); experiment: LPS-induced IL-6 in hTERT immortalised foreskin fibroblasts; type: cell-based, human; details: 2.5 uM IDX or H151 pre-treatment, 7 h LPS (100 ng/ml)
Experimental: as §1, §2

[3] = system: TC-1 cells (cGAS-STING); experiment: CPT-induced IL-6 in TC-1 cells; details: TC-1, 0.5 μM CPT 48 hours; H151 1.8 μM, IDX 2.5 μM
Experimental: FIG. 7: Mouse TC-1 cells were plated in the presence of 0.5 μM CPT for 48 hours, with the following compounds, where indicated: H151 (1.8 μM), IDX (2.5 μM). IL-6 levels were determined by ELISA. Data shown are averaged from 2 (for H151) or 3 independent experiments (conducted with biological replicate), ±standard deviation (SD). […] Each point represents the mean data for each independent experiment; the column represents the mean of the experiments. *, P≤0.05; **, P≤0.01; ***, P≤0.001; ****, P≤0.0001, ns: non-significant.
Cell culture and reagents.
Murine IP-10 production and IL-6 in supernatant of iBMMs and TC-1 was quantified using Mouse CXCL10/IP-10/CRG-2 Duo Set ELISA (R&D systems, #Dy466) and the IL6 OptE1A ELISA Kit mouse (BD Bioscience, #555240), respectively, according to the manufacturer's protocol. Similarly, human IP-10, TNF-α and IL-6 production was measured in cell supernatants using human IP-10 OptEIA ELISA kit (BD Biosciences, #555157), human OptEIA TNF-α kit (BD Bioscience, #555212) and human IL-6 OptEIA ELISA Set (BD Biosciences, #555220). Tetramethylbenzidine substrate (ThermoFisher Scientific) was used for quantification of the cytokines on a Fluostar OPTIMA (BMG LABTECH) plate-reader.

[4] = system: basal STING signalling in Trex1-mutant mice; type: in vivo, mouse; details: 2 mg/kg i.p. daily for 10 days
[5] = system: human hTERT fibroblasts; experiment: Cell proliferation of hTERT fibroblasts; type: cell-based; details: 10 μM IDX, 72 hours
[6] = system: STING signalling (STING, TBK1, IRF3, p-65); experiment: Western blotting of DMXAA-stimulated immortalised mouse bone marrow derived macrophages; type: cell-based; details: 2.5 uM IDX 1 h
Experimental: FIG. 11: Immortalised mouse bone marrow derived macrophages were pre-treated for 1 hour with 2.5 uM IDX prior to stimulation for an indicated amount of time with DMXAA (50 ug/mL), and then lysed and analysed by Western blotting using specific total or phospho-antibody. The results on STING and p-STING are representative of 3 independent experiments.
Western Blotting: Following lysis in RIPA buffer supplemented with complete mini protease inhibitor cocktail (Sigma #4693124001) and phosSTOP inhibitor (Sigma #4906845001), the samples were subjected to SDS-Page analyses, on NuPAGE 4%-12% Bis-Tris Protein Gels (Thermo Scientific) with MES or MOPS running buffer (Thermo Scientific), as previously reported (4). Anti-Sting (#13647), Phospho-Sting (#72971), TBK1 (#3013), phospho-TBK1 (#5483), IKKe (#3416), phospho-IKKe (#8766), IRF-3 (#4302), phosphor-IRF3 (#4947), p-65 (#4764), phospho-p-65 (#3033) antibodies were all from Cell Signalling. Anti-beta-Actin antibodies (#Ab49900) were from Abcam.
To further determine the direct activity of IDX on STING, immortalised mouse bone marrow derived macrophages were stimulated with DMXAA for 1, 2 or 3 hours in the presence of IDX (FIG. 11). The cell lysates were analysed by Western blotting using specific total or phospho-antibody against STING, TBK1, IRF3, and p-65 (FIG. 11). In support of its inhibitory activity on downstream STING signaling, IDX decreased phosphorylation of TBK1 and IRF3 and also STING itself. […] While these effects could all be dependent on TBK1 inhibition by IDX, the inventors also observed decreased p-65 phosphorylation that was not dependent on TBK1 in this cell system (4).

[7] = target: T1, mouse STING (Mus musculus, UniProt Q3TBT3); experiment: DMXAA-induced ISRE-luciferase in L929 cells; details: 2.5 uM IDX; DMXAA up to 100 ug/ml
T1 sequence (Q3TBT3 1-378): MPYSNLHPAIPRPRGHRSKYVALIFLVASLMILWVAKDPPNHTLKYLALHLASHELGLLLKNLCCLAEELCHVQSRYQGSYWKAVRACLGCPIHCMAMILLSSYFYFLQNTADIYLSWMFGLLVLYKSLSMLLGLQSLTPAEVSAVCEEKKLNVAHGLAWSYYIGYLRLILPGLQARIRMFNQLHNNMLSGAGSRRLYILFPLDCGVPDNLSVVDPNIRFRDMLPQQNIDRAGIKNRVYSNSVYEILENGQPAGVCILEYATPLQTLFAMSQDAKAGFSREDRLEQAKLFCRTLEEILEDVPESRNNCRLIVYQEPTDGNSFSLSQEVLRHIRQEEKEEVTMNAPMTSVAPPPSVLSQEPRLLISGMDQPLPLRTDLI
Experimental: FIG. 2: Mouse L929 cells stably expressing an IFN-stimulated responsive element (ISRE)-luciferase reporter were pre-treated for 1 h with indicated doses of IDX, prior an 8 h stimulation with 20 ug/ml DMXAA. Cells were lysed and firefly luciferase was quantified at the end of the experiment. Data shown are averaged from 2 independent experiments in biological triplicate, relative to DMXAA and DMSO only condition control (±SEM).
Luciferase assays were carried out at 8 hours. Data were normalised to DMSO+DMXAA only condition, and are shown as averages from 3 independent experiments (conducted with biological replicate), ±SD. Each point represents the mean data for each independent experiment; the column represents the mean of the experiments.
To determine whether IDX could inhibit STING signalling more directly, mouse L929 cells stably expressing an IFN-stimulated-responsive luciferase (ISRE-Luc) were pretreated with IDX at various doses for 1 h, prior to DMXAA stimulation for 8 h (FIG. 2).
Using mouse L929 cells stably expressing an interferon (IFN)-stimulated responsive element (ISRE)-Luciferase construct referred to as LL171 cells (2) and stimulated with the murine STING agonist DMXAA, the inventors speculated that the DMXAA-induced IFN-β production and downstream ISRE-Luciferase expression would only be minimally impacted by IDX if it selectively acted on NF-κB signalling.

[8] = target: T2, human STING (Homo sapiens, UniProt Q86WV6, G230A/H232R/R293Q/R71H); experiment: STING agonist-driven IP-10 and IFNβ in THP-1 cells; type: cell-based; details: THP-1, 2.5 uM IDX 1 hour
T2 construct: endogenous in cells; host or cells: human THP-1 cells

[9] = Fresh versus frozen DMSO stock comparison; type: physicochemical; details: 40 mM stock in DMSO kept frozen at −20C
[10] = system: human STING (PBMCs); experiment: STING agonist-induced IL-6 and TNFα in human PBMCs; details: PBMCs from two donors, 2.5 μM IDX pre-treatment, GSK STING agonist 100 nM 6 hours
Experimental: The supernatants were collected and analysed for IL-6 and TNFα production by ELISA. Data shown are as average from 2 independent donors (conducted with biological replicate for each donor), ±SEM.
Similarly, human IP-10, TNF-α and IL-6 production was measured in cell supernatants using human IP-10 OptEIA ELISA kit (BD Biosciences, #555157), human OptEIA TNF-α kit (BD Bioscience, #555212) and human IL-6 OptEIA ELISA Set (BD Biosciences, #555220). Tetramethylbenzidine substrate (ThermoFisher Scientific) was used for quantification of the cytokines on a Fluostar OPTIMA (BMG LABTECH) plate-reader.

[11] = system: cGAS/STING (mouse STING-mCherry), IFN-β-luciferase reporter; experiment: IFN-β-luciferase reporter in HEK-Sting cells overexpressing cGAS-GFP; details: different doses overnight
Experimental: FIG. 1: Human HEK cells constitutively expressing mouse STING-mCherry were co-transfected with cGAS-GFP and an interferon (IFN)beta-luciferase (A) or an NF-κB-Luc reporter (B) reporter for 3 h prior to being treated overnight with indicated concentration of IDX (in equal volume of DMSO). Firefly luciferase was quantified the next day. Data shown are averaged from 2 (B) or 3 (A) independent experiments in biological triplicate, relative to DMSO only condition control (±SEM).
Cell culture and reagents.
Cell transfections: HEK Sting cells were reverse transfected with 200 ng of IFNb-Luciferase reporter and 400 ng of cGAS-GFP overexpression vector, using 1.8 ul lipofectamine 2000 and ˜600,000 cells, per well of a 96 well plate (as previously reported (8)). After 3 h, the cells were collected and aliquoted in 12 wells of a 96 well plate (for each well of a 6 well plate), and treated with indicated doses of IDX overnight, prior lysis in 40 ul of Glo lysis buffer the next day (Promega). Luciferase assays were carried out using the Promega Luciferase Assay System on a on a Fluostar OPTIMA (BMG LABTECH) plate-reader.

[12] = system: basal Sting signalling; experiment: Interferon stimulated genes in primary BMDMs from Trex1-mutant mice (RT-qPCR); details: overnight 1.25 and 2.5 μM IDX
[13] = system: influenza A virus (IAV) driven lung inflammation; experiment: Influenza A virus infection in lung TGF-β1 transgenic mice; type: in vivo, mouse; details: 5 mg/kg daily from day 1 after IAV infection until day 3

T2 sequence (Q86WV6 whole entry R71H/G230A/H232R/R293Q): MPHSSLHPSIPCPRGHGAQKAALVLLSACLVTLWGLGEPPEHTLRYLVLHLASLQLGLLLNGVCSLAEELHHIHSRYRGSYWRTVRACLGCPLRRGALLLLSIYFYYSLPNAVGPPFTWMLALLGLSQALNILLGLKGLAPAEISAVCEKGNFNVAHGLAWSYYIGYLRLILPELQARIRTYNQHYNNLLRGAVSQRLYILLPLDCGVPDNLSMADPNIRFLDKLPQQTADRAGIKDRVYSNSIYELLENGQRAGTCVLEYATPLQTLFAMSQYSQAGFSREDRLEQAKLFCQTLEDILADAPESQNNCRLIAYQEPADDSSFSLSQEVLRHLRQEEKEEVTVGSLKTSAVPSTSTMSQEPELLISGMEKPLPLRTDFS

CCc1ccc(NC(=O)Nc2c[nH]c3ccccc23)cc1 [H151, reference compound]
IL-6 production, PolyI:C stimulation [1]: only modestly reduced
IL-6 production, LPS stimulation [2]: only modestly reduced
CPT-induced IL-6 production [3]: strongly reduced

CC(=O)Oc1ccccc1C(=O)O [aspirin]
CPT-induced IL-6 production [3]: strongly reduced

Oc1ccc(C2=Cc3ccc(O)cc3OC2)cc1 [IDX, 2H-1-Benzopyran-7-0,1,3-(4-hydroxyphenyl)]
Ifi44 expression in the spleen [4]: decreased
Ifih1 expression in the spleen [4]: decreased
Isg15 expression in the spleen [4]: significant decreased
Rsad2 expression in the spleen [4]: decreased
serum TNFα levels ([4]; compared to PBS controls): decrease
impact on cell proliferation [5]: little impact
IL-6 production, PolyI:C stimulation [1]: only modestly reduced
p-65 phosphorylation ([6]; DMXAA 50 ug/mL 1, 2 or 3 hours): decreased
phosphorylation of IRF3 ([6]; DMXAA 50 ug/mL 1, 2 or 3 hours): decreased
phosphorylation of STING ([6]; DMXAA 50 ug/mL 1, 2 or 3 hours): decreased
phosphorylation of TBK1 ([6]; DMXAA 50 ug/mL 1, 2 or 3 hours): decreased
shift in size of total STING (STING activation) ([6]; DMXAA 50 ug/mL, 3-hour period): attenuated
IL-6 production, LPS stimulation [2]: only modestly reduced
effect of increasing DMXAA on inhibition of ISRE-Luc [7]: did not reverse the inhibition
IP-10 production driven by ADU-S100 ([8]; ADU-S100 30 uM 6 hours): strongly inhibited
IP-10 production driven by synthetic STING agonist (GSK) ([8]; GSK agonist 100 nM 6 hours): strongly inhibited
reduction of IFNβ production ([8]; synthetic STING agonist (GSK) 100 nM 6 hours, IFNβ ELISA): ~50%
activity of fresh versus frozen IDX stock [9]: did not show any difference of activity
IL-6 production [10]: reduced
TNFα production [10]: reduced
CPT-induced IL-6 production [3]: significantly reduced
inhibition of IFN-β-luciferase [11]: potent inhibitor
Ifih1 expression [12]: dose-dependent inhibition
Ifit1 expression [12]: dose-dependent inhibition
Rsad2 expression [12]: dose-dependent inhibition
IL-6 in bronchial alveolar lavages [13]: significantly reduce
